Results: US11911464B2, “Anti-parasitic immunological compositions” (Prommune, Inc., priority 2018, dated 2024)
Non-standard residues stand in square brackets, D forms with d. No end group written: not given here. NMeL = CN[C@@H](CC(C)C)C(=O)O

B1: recombinant C5a: the complement protein from which the sequence of EP67 is derived (protein, UniProt P01031 678-751, looked up)
C5a anaphylatoxin: TLQKKIEEIAAKYKHSVVKKCCYDGACVNNDETCEQRAARISLGPRCIKAFTECCVVASQLRANISHKDMQLGR
modifications: C5a anaphylatoxin

Legend:
human monocytes [1] = test: Differentiation of human peripheral blood monocytes (morphology); format: cell-based; details: 50 μg/ml, 48 hrs
Excerpt: EP67 Differentiates Human Peripheral Blood Monocytes to Cells with Phenotypes Characteristic of Macrophages/DCs.

[2] = tested on: human monocyte-derived macrophages and DCs; test: Cytokine release from human macrophages and DCs; format: cell-based; details: 50 μg/ml, after 24 hours of incubation
Protocol: Human monocyte-derived macrophages and DCs were incubated with EP67 (50 μg/ml) and scrambled EP67 (50 μg/ml) for 6 and 24 hours. Supernatants were collected and analyzed for the presence of the following cytokines: IL-1beta, IL-2, IL-4, IL-6, IL-10, IL-12p70, IL-13, IL-15, TNF-alpha, and IFN-gamma. […] It is worth noting that the prominent cytokines released at 6 and 24 hours in response to EP67 (IL-1beta, IL-2, IL-6, and TNF-alpha) represent a TH1/pro-inflammatory bias relative to the TH2/anti-inflammatory cytokines (IL-4, IL-5, IL-10, and IL-13). This TH1 bias is in keeping with earlier observations with EP67 and is an important immunologic component for an effective immune response to T. gondii.

[3] = tested on: bone marrow-derived BALB/c DCs; test: Murine dendritic cell activation (cytokine release) by EP67 vaccines; format: cell-based, mouse; details: 6 hr exposure
Excerpt: A subset of vaccines were developed with murine DC's from BALB/c bone marrow, and examined for cytokine response. […] Bone marrow-derived BALB/c DCs were separately exposed to EP67-containing vaccines #1 (TgSAG1) and #2 (TgGRA1) (Example 3), and compared to sham exposure (media). […] KC/GRO, also known as CXCL1, is a potent neutrophil chemotactic cytokine. Increases in INF-gamma, IL-1b, and TNF-α were also observed, and are in-line with expectations of EP67 engagement of the C5a receptor and subsequent activation of dendritic cells.

DCs = test: Surface activation markers of exposed dendritic cells by flow cytometry; format: cell-based, mouse; details: 6 hours exposure
Protocol: […] vaccines were investigated and found to increase surface activation markers of exposed white blood cells, such as DCs shown in FIG. 10, which were exposed for 6 hours to Vaccines #1 (TgSAG1) and #2 (TgGRA1). Following exposure, cells were fixed and stained with antibodies to measure cell surface markers of intact cells by flow cytometry.

[4] = tested on: human monocytes and monocyte-derived dendritic cells; test: Multiplex cytokine release from human monocytes and monocyte-derived dendritic cells (EP67 analogues); format: cell-based; details: 50 μg/ml, 6 and 24 hours
Excerpt: Cytokine Analysis. Considerable time was spent in learning the methods for the rapid, efficient, and high throughput method of cytokine analysis using a multiplex instrument for large panels of cytokines (MesoScale QuickPlex SQ 120). With this instrument, we tested the EP67- and analogue-mediated release of a pro-inflammatory and anti-inflammatory panel of cytokines (IL-1beta, IL-2, IL-4, IL-6, IL-10, IL-12p70, IL-13, IL-15, TNF-α, and IFN-gamma) from human monocytes and monocyte-derived dendritic cells over the course of 6 and 24 hours of exposure 50 μg/ml EP67, scrambled EP67 (scEP67), and EP67 analogues (EP144, EP146, and EP147).

[5] = tested on: bone marrow-derived mouse dendritic cells; test: qPCR detection of cytokine expression following exposure to EP67; format: cell-based; details: EP67 50 μg/ml, 24 hrs, vs PBS controls, normalized to Actin B
Protocol: Free EP67 (unattached to any epitope) was used as a control to stimulate murine bone marrow-derived dendritic cells (See Table 1 below). […] Testing these and additional cytokines (at the gene and protein-expression levels) against all of the synthesized and control vaccines is carried out. Similarly, we will also be analyzing surface marker expression indicative of DC activation.
EP67 (50 μg/ml) was incubated with bone marrow-derived mouse dendritic cells (24 hrs) following in vitro maturation. Fold changes in expression were compared to PBS controls and normalized to Actin B gene expression. Three replicates were analyzed per gene. […] A positive control, bacterial LPS, was also evaluated and produced upregulation of at least 20-fold above PBS controls for all evaluated cytokines.

human monocytes [6] = test: Surface marker immunophenotype of human monocytes incubated with EP67; format: cell-based; details: 50 μg/ml, over 7 days
Protocol: EP67 Differentiates Human Peripheral Blood Monocytes to Cells with Immunophenotypes Characteristic of Macrophages/DCs. Human monocytes were incubated with EP67 (50 μg/ml) and surface markers analyzed over the course of 7 days.

murine splenocytes = test: Cytokine release from murine splenocytes; format: cell-based, mouse; details: 50 μg/ml
Protocol: Splencocytes were obtained from normal Balb/c mice (ca. 2 months) and aged (ca. 17 months) sentinel mice of undetermined background (a gift from the University of Nebraska Medical Center Animal Facility). Spelocytes were cultured in the presence of EP67 and scrambled EP67 (50 μg/ml) for 24 hours, supernatants harvested, and analyzed for the presence of IL-1beta, IL-2, IL-4, IL-5, IL-6, KC/GRO, IL-10, IL-12p70, TNF-alpha, and IFN-gamma. […] Splenocytes were not our original choice of APCs from mice to evaluate the effects of EP67/EP67-based vaccines, but they were chosen for this first assessment as a matter of convenience to help with getting our cell culture protocols and assays established and verified.

RAW 264.7 cells = test: TNF-alpha and IL-6 secretion from RAW 264.7 cells; format: cell-based, mouse; details: 6 hr and 24 hr exposures
Protocol: Although murine work was achieved using commercially available BALB/c cells, we felt it useful to explore additional cell options for in vitro evaluation of EP67 vaccine candidates. […] FIGS. 13A and 13B show the results of RAW 264.7 cells activated by EP67. In order to evaluate a cell line that is responsive to both EP67 and C5a (the complement protein from which the sequence of EP67 is derived), RAW 264.7 were tested for secretion of TNF-a and IL-6. For both cytokines, supernatants from both 6 hr and 24 hr exposures of recombinant C5a were high.

Molecule | conversion of monocytes into elongated, adhered macrophage/DC-like cells (human monocytes [1]) | release of IL-1beta, IL-2, IL-6, IFN-gamma, and TNF-alpha [2] | INF-gamma, IL-1b, and TNF-α release [3] | cytokine release compared to sham (media) [3] | CD80, CCR7, and MHC Class II molecules compared to control (media only) (DCs) | secretion of TNF-a and IL-6 (RAW 264.7 cells) | other results
(MeL)RMYKPaFDS ([NMeL]RMYKP[dA]FDS) [scrmbEP67, reference compound] | not | not | – | – | – | – | –
EEVIDTMKSMQRDEERRYSFKDMP(MeL)aR (EEVIDTMKSMQRDEERRYSFKDMP[NMeL][dA]R; not fully specified; printed as EEVIDTMKSMQRDEERRYSFKDMP(MeL)aR) [Vaccine 2] | – | – | Increases | cytokine release above the controls | Elevation occurred | – | CD80 increase compared to control (media only) (DCs): > 80%
SFKDILPKLSENPWQRRYSFKDMP(MeL)aR (SFKDILPKLSENPWQRRYSFKDMP[NMeL][dA]R; not fully specified; printed as SFKDILPKLSENPWQRRYSFKDMP(MeL)aR) [Vaccine 1] | – | – | Increases | cytokine release above the controls | Elevation occurred | – | –
YSFKDM(Cha)LaR [EP147] | – | – | – | – | – | – | cytokine release (pro- and anti-inflammatory panel) [4]: increase in cytokine release
YSFKDMP(MeL)aR (YSFKDMP[NMeL][dA]R; not fully specified; printed as YSFKDMP(MeL)aR) [EP67] | converts rounded and non-adhered monocytes into elongated, adhered cells | induced the release | – | – | – | statistically significant (p<0.05) increases | Fold change CXCL1 (a.k.a. KC) expression [5]: 1.61 fold; Fold change IL-6 expression [5]: 3.40 fold; Fold change IL-10 expression [5]: 4.13 fold; Fold change TNF alpha expression [5]: 2.14 fold; expression of CD14, CD16, CD11b, and CD33 (human monocytes [6]): moderately enhanced; expression of CD80 and CD206 (human monocytes [6]): significantly enhanced; cytokine release relative to controls, aged sentinel mice splenocytes (murine splenocytes; aged ca. 17 months): more pronounced effect; cytokine release relative to controls, Balb/c splenocytes (murine splenocytes; normal Balb/c mice ca. 2 months): little effect
B1 | – | – | – | – | – | high | –
